From US4988706A (priority 1988, dated 1991)
Counter-ions that a name gives are not always drawn. Like-named read-outs stand apart in the source and are kept apart here.

Columns and labels:
[1] = molecular target: muscarinic receptors (rat cerebral cortex); test: Radio ligand binding: displacement of the muscarinic agonist 3H-Oxotremorine-M (3H-OXO-M); parameters: species or system Hooded Lister rats; settings: displacement of 2nM 3H-OXO-M, rat cerebral cortex membranes, 2 mM magnesium chloride, 50 mM tris pH 7.7, 37° C., 30 min
[2] = molecular target: muscarinic receptors (rat cerebral cortex); type: binding, Hooded Lister rats; settings: displacement of 0.27 nM 3H-QNB, rat cerebral cortex membranes, 50 mM tris pH 7.7, 37° C., 30 min

FCc1noc(C23CCCN(CC2)C3)n1 (racemic) [Example E1, (±) 5-(3-Fluoromethyl-1,2,4-oxadiazol-5-yl)-1azabicyclo[3.2.l]octane oxalate salt]
IC50 [1]: 6.9 nM | IC50 [2]: 900 nM

Nc1noc(C23CCCN(CC2)C3)n1 (racemic) [Example E2, (±) 5-(3-Amino-1,2,4-oxadiazol-5-yl)-1-azabicyclo-[3.2.11octane]
IC50 [1]: 11 nM | IC50 [2]: 2000 nM

Nc1noc(C23CCN(CC2)C3)n1 [Example E4]
IC50 [1]: 32.5 nM | IC50 [2]: 2250 nM

FCc1noc(C23CCN(CC2)C3)n1 [Example E5, 4-(3-Fluoromethyl-1,2,4-oxadiazol-5-yl)-1-azabicyclo[2.2.11heptane oxalate salt]
IC50 [1]: 140 nM | IC50 [2]: 19500 nM
